In ChEMBL document CHEMBL1158017, “28-deacetylbelamcandal, a tumor-promoting triterpenoid from Iris tectorum” (J Nat Prod, 1999):

What was measured:
[1] = Displacement of [3H]PDBu from partially purified rabbit brain PKC; design: species or system Oryctolagus cuniculus
Mus musculus [2] = species on record: Mus musculus; test: Carcinogenesis in CD1 mouse skin assessed as tumor incidence at 400 nmol twice a week for 20 weeks; format: functional
HL-60 [3] = test: Induction of TNFalpha release from human HL-60 cells after 24 hrs by ELISA; format: functional
Oryctolagus cuniculus = species on record: Oryctolagus cuniculus; test: Activation of rabbit brain PKC assessed as [32P] incorporation in histone 3-S from [gamma32P]ATP
HL-60 [4] = test: Induction of human HL-60 cell adhesion after 48 hrs; format: functional
Mus musculus [5] = species on record: Mus musculus; test: Carcinogenesis in CD1 mouse skin assessed as tumor incidence at 4 nmol twice a week for 20 weeks; format: functional

C=C(/C=C/C=C(/CO)[C@@H]1CC[C@]2([C@H](CCCO)/C(=C(/C)C=O)CC[C@]2(C)O)[C@H]1O)CCC=C(C)C
IC50 [1]: 200 nM | Activity (Mus musculus [2]): 64.3% | ED100 (HL-60 [3]): 3000 nM | ED50 (Oryctolagus cuniculus): 300 nM | Activity (HL-60 [4]): 500 nM

CCCCCCCCCCCCCC(=O)O[C@@H]1[C@@H](C)[C@@]2(O)[C@@H](C=C(CO)C[C@]3(O)C(=O)C(C)=C[C@@H]23)[C@@H]2C(C)(C)[C@]12OC(C)=O [PHORBOL MYRISTATE ACETATE]
IC50 [1]: 15 nM | ED100 (HL-60 [3]): 6 nM | ED50 (Oryctolagus cuniculus): 15 nM | Activity (HL-60 [4]): 3 nM | Activity (Mus musculus [5]): 93.3%
